The NIST ThermoML archive (doi:10.1016/j.jct.2004.12.014)

Assays:
[1] = 318.15 K; 101.33 kPa; Liquid
[2] = refractive index (Na D-line) (dimensionless); details: 318.15 K; 101.33 kPa; Liquid; Standard Abbe refractometry
[3] = xn = mol fraction of the nth substance listed; details: 318.15 K, 101 kPa, Liquid
[4] = excess molar enthalpy (molar enthalpy of mixing); xn = mol fraction of the nth substance listed; details: 318.15 K, 101 kPa, Liquid

CCCCOC(=O)CC [butyl propanoate]
Details | mass density [kg/m3] | refractive index
[1] | 851.33 | –
[2] | – | 1.3895

CCOC(=O)CC [ethyl propanoate]
Details | mass density [kg/m3] | refractive index
[1] | 860.98 | –
[2] | – | 1.3711

CCC(=O)OC [methyl propanoate]
Details | mass density [kg/m3] | refractive index
[1] | 884.6 | –
[2] | – | 1.3641

CCCCCOC(=O)CC [pentyl propanoate]
Details | mass density [kg/m3]
[1] | 848.98

CCCCCOC(=O)CC [pentyl propanoate] + CCCCCCCCCCCCC
Details | excess molar enthalpy [kcal/mol] | excess molar volume [m3/mol]
[3], x1 = 0.0877 | – | 2.09e-07
[3], x1 = 0.1642 | – | 3.71e-07
[3], x1 = 0.2425 | – | 5.1e-07
[3], x1 = 0.3196 | – | 6.05e-07
[3], x1 = 0.3804 | – | 6.65e-07
[3], x1 = 0.4461 | – | 6.93e-07
[3], x1 = 0.5107 | – | 7.04e-07
[3], x1 = 0.5701 | – | 6.95e-07
[3], x1 = 0.6258 | – | 6.64e-07
[3], x1 = 0.6801 | – | 6.16e-07
[3], x1 = 0.7305 | – | 5.62e-07
[3], x1 = 0.7814 | – | 4.99e-07
[3], x1 = 0.8272 | – | 4.41e-07
[3], x1 = 0.8719 | – | 3.34e-07
[3], x1 = 0.9166 | – | 2.64e-07
[3], x1 = 0.9578 | – | 1.29e-07
[4], x1 = 0.0691 | 0.0578 | –
[4], x1 = 0.1382 | 0.105 | –
[4], x1 = 0.2136 | 0.151 | –
[4], x1 = 0.2861 | 0.185 | –
[4], x1 = 0.3564 | 0.209 | –
[4], x1 = 0.4222 | 0.224 | –
[4], x1 = 0.4822 | 0.229 | –
[4], x1 = 0.5355 | 0.228 | –
[4], x1 = 0.578 | 0.222 | –
[4], x1 = 0.5956 | 0.219 | –
[4], x1 = 0.6423 | 0.207 | –
[4], x1 = 0.6875 | 0.193 | –
[4], x1 = 0.7398 | 0.171 | –
[4], x1 = 0.7927 | 0.148 | –
[4], x1 = 0.8474 | 0.118 | –
[4], x1 = 0.9008 | 0.0823 | –
[4], x1 = 0.9546 | 0.0415 | –

CCCCCOC(=O)CC [pentyl propanoate] + CCCCCCCCCCCCCCC
Details | excess molar enthalpy [kcal/mol] | excess molar volume [m3/mol]
[3], x1 = 0.0451 | – | 1.37e-07
[3], x1 = 0.1011 | – | 2.83e-07
[3], x1 = 0.1866 | – | 4.41e-07
[3], x1 = 0.2665 | – | 5.63e-07
[3], x1 = 0.341 | – | 6.68e-07
[3], x1 = 0.4128 | – | 7.28e-07
[3], x1 = 0.478 | – | 7.64e-07
[3], x1 = 0.5422 | – | 7.75e-07
[3], x1 = 0.5989 | – | 7.59e-07
[3], x1 = 0.6522 | – | 7.35e-07
[3], x1 = 0.7029 | – | 6.74e-07
[3], x1 = 0.7542 | – | 6.2e-07
[3], x1 = 0.7997 | – | 5.33e-07
[3], x1 = 0.8438 | – | 4.51e-07
[3], x1 = 0.8845 | – | 3.62e-07
[3], x1 = 0.924 | – | 2.42e-07
[3], x1 = 0.9627 | – | 1.57e-07
[4], x1 = 0.0757 | 0.0662 | –
[4], x1 = 0.1563 | 0.124 | –
[4], x1 = 0.2383 | 0.174 | –
[4], x1 = 0.3152 | 0.212 | –
[4], x1 = 0.3915 | 0.238 | –
[4], x1 = 0.4596 | 0.251 | –
[4], x1 = 0.52 | 0.254 | –
[4], x1 = 0.5607 | 0.251 | –
[4], x1 = 0.5843 | 0.246 | –
[4], x1 = 0.6262 | 0.236 | –
[4], x1 = 0.6747 | 0.22 | –
[4], x1 = 0.7264 | 0.2 | –
[4], x1 = 0.7806 | 0.174 | –
[4], x1 = 0.8352 | 0.141 | –
[4], x1 = 0.892 | 0.0996 | –
[4], x1 = 0.9477 | 0.0535 | –
